Measured values: PubChem BioAssay AID328 (DTP/NCI, 2004)
“And” between values parts separate entries of the source, which are not always exact repeats. Identical values can stand only once. Inconclusive results and toxic doses are left out. Rule for the calls: active = survival T/C of 150% or more; inactive = T/C below 125% in these data.

System: BDF1 mice, P388 leukemia ip, median survival T/C
Assay: NCI In Vivo Anticancer Drug Screen. Data for tumor model P388 Leukemia (intraperitoneal) in B6D2F1 (BDF1) mice
Conditions: endpoint: median survival time, higher = longer survival
In short: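 Mice carrying the transplantable tumour receive compound or vehicle. Survival is followed in each arm, and the treated measure is divided by the vehicle measure.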

[1] = dose: 12.5 mg/kg/injection, schedule: Q01DX009 (ip), vehicle: saline with Tween-80
[2] = dose: 50.0 mg/kg/injection, schedule: Q01DX009 (ip), vehicle: saline with Tween-80
[3] = dose: 100.0 mg/kg/injection, schedule: Q01DX009 (ip), vehicle: saline with Tween-80
[4] = dose: 100.0 mg/kg/injection, schedule: Q04DX003 (ip), vehicle: saline with Tween-80
[5] = dose: 200.0 mg/kg/injection, schedule: Q04DX003 (ip), vehicle: saline with Tween-80
[6] = dose: 400.0 mg/kg/injection, schedule: Q04DX003 (ip), vehicle: saline with Tween-80

Measured: T/C

CC1(c2cccs2)C(=O)NC(=O)N1C(=O)CCl (stereo not drawn)
inactive: [1] 101 % of control | dose: 25.0 mg/kg/injection, schedule: Q01DX009 (ip), vehicle: saline with Tween-80 88 % of control | [2] 105 % of control | dose: 50.0 mg/kg/injection, schedule: Q04DX003 (ip), vehicle: saline with Tween-80 104 % of control | dose: 75.0 mg/kg/injection, schedule: Q01DX009 (ip), vehicle: saline with Tween-80 90 % of control | [3] 106 % of control | [4] 94 % of control | dose: 150.0 mg/kg/injection, schedule: Q01DX009 (ip), vehicle: saline with Tween-80 105 % of control | [5] 97 % of control

Cc1cccc2nc(Oc3ccccc3)nc(=O)n12
inactive: [2] 96 % of control | [3] 99 % of control

Cc1ncc([N+](=O)[O-])n1CCSSCCn1c([N+](=O)[O-])cnc1C
inactive: [4] 118 % of control | [5] 118 % of control | [6] 115 % of control

O=C1c2ccccc2C(=O)c2c(NCCNCCO)ccc(NCCNCCO)c21
inactive: dose: 4.0 mg/kg/injection, schedule: Q01DX009 (ip), vehicle: water 111 % of control | dose: 8.0 mg/kg/injection, schedule: Q01DX009 (ip), vehicle: water 96 % of control | dose: 50.0 mg/kg/injection, schedule: Q01DX009 (ip), vehicle: saline 74 % of control
active: dose: 2.0 mg/kg/injection, schedule: Q01DX009 (ip), vehicle: water 163 % of control | dose: 3.12 mg/kg/injection, schedule: Q01DX009 (ip), vehicle: saline 262 % of control and 403 % of control and 239 % of control | dose: 4.0 mg/kg/injection, schedule: Q04DX003 (ip), vehicle: saline with Tween-80 154 % of control | dose: 6.25 mg/kg/injection, schedule: Q01DX009 (ip), vehicle: saline 502 % of control and 202 % of control and 189 % of control | dose: 8.0 mg/kg/injection, schedule: Q04DX003 (ip), vehicle: saline with Tween-80 165 % of control | dose: 12.5 mg/kg/injection, schedule: Q01DX009 (ip), vehicle: saline 503 % of control and 517 % of control | dose: 13.0 mg/kg/injection, schedule: Q04DX003 (ip), vehicle: saline + alcohol 222 % of control | dose: 16.0 mg/kg/injection, schedule: Q04DX003 (ip), vehicle: saline with Tween-80 165 % of control | dose: 21.6 mg/kg/injection, schedule: Q04DX003 (ip), vehicle: saline + alcohol 321 % of control | dose: 25.0 mg/kg/injection, schedule: Q01DX009 (ip), vehicle: saline 517 % of control | dose: 32.0 mg/kg/injection, schedule: Q04DX003 (ip), vehicle: saline with Tween-80 192 % of control | dose: 36.0 mg/kg/injection, schedule: Q04DX003 (ip), vehicle: saline + alcohol 311 % of control | dose: 60.0 mg/kg/injection, schedule: Q04DX003 (ip), vehicle: saline + alcohol 201 % of control | dose: 64.0 mg/kg/injection, schedule: Q04DX003 (ip), vehicle: saline with Tween-80 274 % of control

N#Cc1nc2nc(C(F)(F)F)[nH]c2nc1C#N
inactive: dose: 6.25 mg/kg/injection, schedule: Q04DX003 (ip), vehicle: saline with Tween-80 100 % of control | [1] 95 % of control | dose: 12.5 mg/kg/injection, schedule: Q04DX003 (ip), vehicle: saline with Tween-80 100 % of control | dose: 25.0 mg/kg/injection, schedule: Q04DX003 (ip), vehicle: saline with Tween-80 87 % of control and 90 % of control

CC(Cc1ccccc1)NC1CC2CCC1C2 (stereo not drawn)
inactive: dose: 6.25 mg/kg/injection, schedule: Q01DX009 (ip), vehicle: Klucel (hydroxypropylcellulose) (HPC) 104 % of control | dose: 12.5 mg/kg/injection, schedule: Q01DX009 (ip), vehicle: Klucel (hydroxypropylcellulose) (HPC) 104 % of control | dose: 25.0 mg/kg/injection, schedule: Q01DX009 (ip), vehicle: Klucel (hydroxypropylcellulose) (HPC) 113 % of control

C[Si](C)(C)OC/C=C\CO[Si](C)(C)C
inactive: dose: 100.0 mg/kg/injection, schedule: Q01DX009 (ip), vehicle: saline 100 % of control | dose: 200.0 mg/kg/injection, schedule: Q01DX009 (ip), vehicle: saline 108 % of control | dose: 400.0 mg/kg/injection, schedule: Q01DX009 (ip), vehicle: saline 108 % of control

CC(CC(=N)N)NC(=O)C1CCC(N)=N1 (stereo not drawn)
inactive: dose: 150.0 mg/kg/injection, schedule: Q01DX009 (ip), vehicle: saline 98 % of control | dose: 300.0 mg/kg/injection, schedule: Q01DX009 (ip), vehicle: saline 98 % of control

O=C1C=C(Nc2ccc(Cl)cc2)C(Nc2ccc(Cl)cc2)=CC1=O
inactive: dose: 62.5 mg/kg/injection, schedule: Q01DX009 (ip), vehicle: saline with Tween-80 89 % of control | dose: 125.0 mg/kg/injection, schedule: Q01DX009 (ip), vehicle: saline with Tween-80 87 % of control | dose: 250.0 mg/kg/injection, schedule: Q01DX009 (ip), vehicle: saline with Tween-80 91 % of control

Cc1ccc(S(=O)(=O)OCCN(CCOS(=O)(=O)c2ccc(C)cc2)c2ccc(C=O)cc2)cc1
active: dose: 66.0 mg/kg/injection, schedule: Q04DX003 (ip), vehicle: saline with Tween-80 191 % of control | [4] 250 % of control | dose: 150.0 mg/kg/injection, schedule: Q04DX003 (ip), vehicle: saline with Tween-80 204 % of control

O=C(O)c1cc(Br)ccc1OCc1ccc(Cl)cc1
inactive: [4] 106 % of control | [5] 99 % of control | [6] 110 % of control

CC(C(=O)O)C(=O)O.[NH-]CC[NH-].[Pt+2]
active: dose: 3.13 mg/kg/injection, schedule: Q01DX009 (ip), vehicle: water 167 % of control | dose: 6.25 mg/kg/injection, schedule: Q01DX009 (ip), vehicle: water 181 % of control | dose: 25.0 mg/kg/injection, schedule: Q01DX009 (ip), vehicle: water 214 % of control
inactive: dose: 12.5 mg/kg/injection, schedule: Q01DX009 (ip), vehicle: water 90 % of control

CCOC1CC2c3ccccc3C1c1cccc[n+]12 (stereo not drawn)
inactive: dose: 9.37 mg/kg/injection, schedule: Q01DX009 (ip), vehicle: saline 108 % of control | dose: 18.75 mg/kg/injection, schedule: Q01DX009 (ip), vehicle: saline 108 % of control | dose: 37.5 mg/kg/injection, schedule: Q01DX009 (ip), vehicle: saline 91 % of control

Cc1nc2c(sc(=N)n2-c2ccccc2)c(=O)[nH]1
inactive: [2] 114 % of control

Cc1ccc(Cl)cc1O
inactive: [2] 100 % of control | [3] 96 % of control | dose: 200.0 mg/kg/injection, schedule: Q04DX003 (ip), vehicle: saline + alcohol 104 % of control | dose: 300.0 mg/kg/injection, schedule: Q04DX003 (ip), vehicle: saline + alcohol 104 % of control | dose: 450.0 mg/kg/injection, schedule: Q04DX003 (ip), vehicle: saline + alcohol 91 % of control

C=C1CC(OC(=O)c2ccc([N+](=O)[O-])cc2)C1
inactive: [2] 111 % of control | [3] 111 % of control | dose: 200.0 mg/kg/injection, schedule: Q01DX009 (ip), vehicle: saline with Tween-80 90 % of control
